# Data published in PubChem BioAssay AID651973 (The Scripps Research Institute Molecular Screening Center, 2013).
# Activity calls are given as the source filed them. No rule for the calls is given here.
# System: Cell-based VP16 transactivation luciferase reporter, luminescence
# Assay: VP16 transactivation reporter inhibitors, dose response, counter-screen for LRH-1 inverse agonist project, cell-based, luminescence (AID 651973)
row,SMILES,IC50
1,O=C(COc1ccc(S(=O)(=O)N2CCCC2)cc1Cl)Nc1ccc2c(c1)OCO2,> 35.9 µM (inactive)
2,Cc1no[n+]([O-])c1COc1ccccc1/C=N/n1nnnc1N,> 35.9 µM (inactive)
3,COc1cc(OC)cc(-c2oc3cccnc3c2C#CCCO)c1,> 35.9 µM (inactive)
4,CC(=O)c1ccc(OC(C)C(=O)OCC(=O)NCCc2ccccc2)cc1 (configuration not stated),> 35.9 µM (inactive)
5,CCOc1ccc(NC(=O)CSc2nncc(=O)[nH]2)cc1,> 35.9 µM (inactive)
6,CCOc1ccc(CCNC(=O)CN2C(=O)NC3(CCc4ccccc43)C2=O)cc1OCC (configuration not stated),> 35.9 µM (inactive)
7,Cc1ccc(NC(=O)CSc2sc3c(O)cc(=O)[nH]c3c2C#N)c(F)c1,> 35.9 µM (inactive)
8,NC(=O)C1CCN(C(=O)COc2ccc3c4c(c(=O)oc3c2)CCC4)CC1,> 35.9 µM (inactive)
9,CCc1cc(=O)oc2c(C)c(OCC(=O)NCCN3CCOCC3)ccc12,> 35.9 µM (inactive)
10,COc1ccccc1NC(=O)CN1CCN(CC(=O)Nc2ccc(S(N)(=O)=O)cc2)CC1,20.4 µM (inactive)
11,Cc1onc(-c2ccccc2)c1C(=O)O/N=C(\N)c1ccc([N+](=O)[O-])o1,> 35.9 µM (inactive)
12,CC(=O)c1ccc(NC(=O)C(C)O/N=C(\N)c2ccccc2)cc1 (configuration not stated),> 35.9 µM (inactive)
13,O=C(COC(=O)c1ccc[n+]([O-])c1)Nc1ccc([N+](=O)[O-])cc1Cl,> 35.9 µM (inactive)
14,O=C(NCc1ccco1)c1nn(-c2ccccc2)c(=O)c2ccccc12,> 35.9 µM (inactive)
15,Cc1ccc(NC(=O)COC(=O)C(NS(=O)(=O)c2ccc(Cl)cc2)C(C)O)c(Br)c1 (configuration not stated),> 35.9 µM (inactive)
16,COC(=O)c1ccc(NC(=O)CN2CCN(c3ccc(Cl)cc3)CC2)cc1,> 35.9 µM (inactive)
17,CC1SC(C)C(=O)N(CC(=O)Nc2ccc3c(c2)OCO3)C1=O (configuration not stated),> 35.9 µM (inactive)
18,O=C(Nc1ccc(Cc2ccncc2)cc1)c1ccc([N+](=O)[O-])o1,> 35.9 µM (inactive)
19,O=C(Nc1ccc(Cc2ccncc2)cc1)c1cccc([N+](=O)[O-])c1,> 35.9 µM (inactive)
20,CS(=O)(=O)c1ccc(-c2cc(NC=O)c3ncc(-c4ccc(F)cc4)n3c2)cc1,14.6 µM (inactive)
21,O=C(Nc1ccc(C(=O)N2CCOCC2)cc1)c1cccc([N+](=O)[O-])c1,> 35.9 µM (inactive)
22,CC(O)(c1cccc(F)c1)c1nc(-c2ccc(S(C)(=O)=O)cc2)cs1 (configuration not stated),16.2 µM (inactive)
23,COc1ccc(CCNC(=O)COC(=O)Cc2ccccc2[N+](=O)[O-])cc1,> 35.9 µM (inactive)
24,CC(=O)Nc1ccc(N=c2cc([N+](=O)[O-])cc(Cl)n2O)cc1,> 35.9 µM (inactive)

row,SMILES,IC50
1,Cc1ccc(-c2nn3c(C)nnc3s2)cc1NC(=O)c1cccs1,> 35.9 µM (inactive)
2,NS(=O)(=O)c1ccc(CCNC(=O)COc2ccc3c4c(c(=O)oc3c2)CCC4)cc1,> 35.9 µM (inactive)
3,COc1cccc(C(=O)COc2cccc(NC(=O)c3cccc([N+](=O)[O-])c3)c2)c1,8.46 µM
4,COc1ccc(CCNC(=O)CN2C(=O)NC3(CCCCC3)C2=O)cc1,> 35.9 µM (inactive)
5,CCOc1ccc(OCCN2C(=O)NC(Cc3c[nH]c4ccccc34)C2=O)cc1 (configuration not stated),> 35.9 µM (inactive)
6,N=c1sccn1CC(=O)Nc1ccc(S(N)(=O)=O)cc1,> 35.9 µM (inactive)
7,Cc1ccc(C)c(NC(=O)CSc2nnc(-c3n[nH]c4ccccc34)o2)c1,> 35.9 µM (inactive)
8,CC(=O)Nc1ccc(NC(=O)CSc2nnc(-c3cc4ccccc4o3)n2C)cc1,> 35.9 µM (inactive)
9,COc1ccc(CCNC(=O)COC(=O)C23CC4CC(CC(C4)C2)C3)cc1,> 35.9 µM (inactive)
10,CC(=O)Nc1ccc(NC(=O)CSc2nnnn2C2CCCCC2)cc1,> 35.9 µM (inactive)
11,Cc1ccc(NC(=O)CN2C(=O)NC(C)(CC(C)C)C2=O)c(Br)c1 (configuration not stated),> 35.9 µM (inactive)
12,CCCN(CC(=O)Nc1ccc(C(N)=O)cc1)CC(=O)Nc1ccccc1C,> 35.9 µM (inactive)
13,COc1ccccc1Oc1nnnn1-c1ccc(C(N)=O)cc1,> 35.9 µM (inactive)
14,CCc1cc(=O)oc2c(C)c(OCC(=O)NCCCN3CCCC3=O)ccc12,> 35.9 µM (inactive)
15,CCc1ccccc1NC(=O)CSc1nnc([C@@H]2CCCN2C(=O)OC(C)(C)C)o1,> 35.9 µM (inactive)
16,CCn1c(SCC(=O)Nc2ccc(Cl)cc2)nnc1C1CC1,> 35.9 µM (inactive)
17,CCCNC(=O)c1sc2c(c1C(=O)Nc1ccccn1)CCCC2,> 35.9 µM (inactive)
18,Cc1ccc(NC(=O)COC(=O)c2cc(=O)c3ccccc3o2)c(Br)c1,> 35.9 µM (inactive)
19,Cc1nn(CC(=O)Nc2ccc3c(c2)OCCO3)c(C)c1[N+](=O)[O-],> 35.9 µM (inactive)
20,N#Cc1cc([N+](=O)[O-])ccc1NC(=O)COC(=O)C1CCC(=O)N1 (configuration not stated),> 35.9 µM (inactive)
21,COc1cccc(-c2cnc3c(NC(C)=O)cc(-c4ccc(S(C)(=O)=O)cc4)cn23)c1,> 35.9 µM (inactive)
22,NS(=O)(=O)c1ccc(O)c(NC(=O)c2ccc([N+](=O)[O-])o2)c1,> 35.9 µM (inactive)
23,COc1cc(C(=O)Nc2ccccc2C2COC(=O)C2=N)cc(OC)c1OC (configuration not stated),> 35.9 µM (inactive)
